Source: paper PMC9962304, “Insightful Improvement in the Design of Potent Uropathogenic E. coli FimH Antagonists” (Pharmaceutics, 2023)
“Also recorded” adds a separate entry of the source.

Tests used:
[1] = tested on: strain CFT073 adhesion to HTB-9 cells; test: Bacterial adhesion assay on bladder cell monolayers; format: cell-based, Escherichia coli / human; conditions: for efficiency at reducing FimH-mediated bacterial adherence (result in words): 500 μM, HTB-9 cells, CFT073
Method: To evaluate the efficacy of the synthetic mannoside antagonists to inhibit the ability of CFT073 strain to adhere to epithelial cells, an in vitro adhesion assay was performed. For this purpose, equal amounts of strain CFT073 strain were inoculated in PBS supplemented with different concentrations of each mannoside at final concentrations of 100, 500 μM, and 1 mM and incubated for 3h under static conditions. Bacterial inoculation was used to infect cell line 5637 (HTB-9 cell) monolayers at a multiplicity of infection (MOI) of 10. At 2.5 h post-infection, the number of cell-associated bacteria was calculated by CFU/mL counting (Figure 9). No significant inhibition of bacterial adhesion to bladder cells was obtained using mannoside inhibitors at 100 µM. Conversely, a significant reduction (more than 1 log) in the number of adherent bacteria was observed by increasing the concentration of the mannosides to 500 μM in comparison to non-treated bacteria (Figure 10). The same extent of reduction in bacterial adhesion to bladder cells was obtained by increasing mannosides concentration to 1 mM, thereby showing a dose-dependent effect. […] To appraise qualitatively the reduction of bacterial adhesion, parallel infected cells were fixed, and Giemsa stained.
HTB-9 cells were routinely seeded in cell culture plates and maintained 2–4 days at 37 °C in a humidified atmosphere containing 5% CO2. For the adhesion assay, cells were seeded in 35 mm tissue culture plates at a density of 1 × 10^5 cells/well and incubated at 37 °C for 48 h to reach confluency. CFT073 was grown in LB under mild shaking conditions overnight and resuspended in phosphate buffer (PBS) to an inoculum of ~10^6 CFU/mL (normalized according to OD600). Each mannoside molecule was added to CFT073 inoculant at the final concentrations of 100, 500 μM and 1 mM and incubated for 3 h in static conditions. […] Images were recorded with a Leica DM5000B microscope equipped with DFX340/DFX300 camera and processed using the Leica Application Suite 2.7.0.R1 software (Leica).

[2] = target: T1, FimH lectin domain (amino acids 1-158) (Escherichia coli, UniProt P08191); test: biochemical; format: binding, E. coli; conditions: for IC50: IC50, competitive inhibition of biotinylated Man-BSA binding to coated FimH lectin; for RIP (relative inhibitory potency): relative to reference MeMan, 23
T1 construct: using a FimH lectin domain (amino acids 1-158) LEctPROFILE kit (provided by GLYcoDiag); purchased GLYcoDiag (Orléans, France)
T1 sequence (P08191 22-179): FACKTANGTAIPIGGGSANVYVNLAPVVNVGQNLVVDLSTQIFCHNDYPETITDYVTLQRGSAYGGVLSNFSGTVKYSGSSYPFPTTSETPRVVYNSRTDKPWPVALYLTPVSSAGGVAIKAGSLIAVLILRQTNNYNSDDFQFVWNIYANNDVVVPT
Method: To measure the relative binding affinity of the newly synthesized compounds 11, 20, and 18 against FimH, the usual referenced standards were used for comparison with previously published data: heptyl α-D-mannopyranoside (HepMan, 21), para-nitrophenyl α-D-mannopyranoside (PNPMan, 22), and methyl α-D-mannopyranoside (MeMan, 23). The relative inhibitory potential of the above compounds was determined against a biotinylated Man-BSA conjugate using a FimH lectin domain (amino acids 1-158) LEctPROFILE kit (provided by GLYcoDiag) (Figure 1, Table 1).
FimH LEctPROFILE kit assays from GLYcoDiag (Orléans, France) were performed according to GlycoDiag’s protocol already described. Briefly, the interaction profiles of each compound were determined through a competitive inhibition assay based on the inhibition by the compounds of the interaction between FimH lectin coated onto the microplate surface and a biotinylated neoglycoprotein NeoM (Man-BSA) as a tracer. A mix of biotinylated Man-BSA (fixed concentration) and the corresponding compounds (range of concentrations) prepared in PBS supplemented with 1 mM CaCl2 and 0.5 mM MgCl2 was deposited in each well (50 µL each) in triplicate and incubated for two hours at room temperature. After washing with PBS buffer, the conjugate streptavidin-DTAF (dichlorotriazinylamino fluorescein) was added (50 µL) and incubated 30 min more. The plate was washed again with PBS. Finally, 100 µL of PBS was added for the readout of fluorescent plate performed with a fluorescence reader (Pherastar microplate reader, BMG labtech, λex = 485 nm, λem = 530 nm). The signal intensity is inversely correlated with the capacity of the compound to be recognized by the lectin and expressed as inhibition percentage with comparison with the corresponding tracer alone. Data analysis was performed with GraphPadPrism software (version 5.03 for windows, San Diego, CA, USA). 50% inhibitory concentration (IC50) was determined according to a standard dose-response/inhibition fitting model with the following equation: y = 100 / (1 + [inhibitor]/IC50) and expressed in nanomolar units.

E. coli FimH = tested on: E. coli FimH; set-up: method as in PMID 28671638; conditions: unit inferred; previous work; cited from earlier work
UPEC strain CFT073 = test: Mannosides as carbon source, CFU/mL counting in PBS; format: cell-based, Escherichia coli; conditions: 24 h, 37 °C, 500 μM (D-mannose also 83 mM)
Method: To test whether the above mannoside derivatives could exert bactericidal and/or cytotoxic activities, bacterial growth and cell viability assays were undertaken in the presence of each mannoside at different concentrations. Natural D-mannose (D-Man) was included as control. […] Moreover, no cytotoxic effect was recorded for urinary bladder cell line 5637 (HTB-9 cell) monolayers, as measured by the MTT test (Figure 6). Since D-mannose can serve as nutrient replacement for E. coli when there is a shortage of D-glucose, we tested whether these new derivatives could be used as carbon sources as well [5]. […] Bacteria were incubated for an additional 24 h in the absence and in the presence of different mannosides and the number of viable bacteria was assessed by CFU/mL counting. […] Since carbohydrates can influence the activity of conventional antibiotics, the activity of different classes of antibiotics such as ampicillin (AMP 30 μg/mL), streptomycin (SM 50 µg/mL), and gentamycin (GM 50 µg/mL) in the presence of the synthetic mannoside analogs was evaluated.
Mannosides dissolved in dimethyl sulfoxide DMSO or water at a final concentration of 5 mM were prepared. […] Readings of culture turbidity (OD600) were determined using a plate reader (POLARstar Omega BMG Labtech plate reader, Germany). […]

Compound	efficiency at reducing FimH-mediated bacterial adherence (result in words) [1]	IC50 [2] [nM]	RIP (relative inhibitory potency) [2]	Kd (E. coli FimH) [nM]	lower concentration than natural D-mannose for same extent of bacterial adhesion inhibition ([1]; compared with natural D-mannose) [fold]	number of viable bacteria (CFU/mL) compared to non-treated control (UPEC strain CFT073)
OC[C@H]1O[C@H](C/C=C/c2ccc3ncccc3c2)[C@@H](O)[C@@H](O)[C@@H]1O [Compound 11]	most efficient; also recorded: better potency in inhibiting bacterial adhesion	3.17 ± 2.3	887	–	–	–
OC[C@H]1O[C@H](C/C=C/c2ccc(-c3ccccc3)cc2)[C@@H](O)[C@@H](O)[C@@H]1O [Compound 18]	–	30.3 ± 9	93	17 ± 3.5	–	–
OC[C@H]1O[C@H](C/C=C/c2ccccc2-c2ccncc2)[C@@H](O)[C@@H](O)[C@@H]1O [Compound 20]	–	0.82 ± 0.4	3428	–	–	–
CCCCCCCO[C@H]1O[C@H](CO)[C@@H](O)[C@H](O)[C@@H]1O [Compound 21, heptyl α-D-mannopyranoside]	–	19.4 ± 5.2	145	–	–	–
O=[N+]([O-])c1ccc(O[C@H]2O[C@H](CO)[C@@H](O)[C@H](O)[C@@H]2O)cc1 [Compound 22, para-nitrophenyl α-D-mannopyranoside]	–	74.1	38	–	–	–
CO[C@H]1O[C@H](CO)[C@@H](O)[C@H](O)[C@@H]1O [Compound 23, methyl α-D-mannopyranoside]	less efficient	2810	1	–	164	–
OC[C@H]1OC(O)[C@@H](O)[C@@H](O)[C@@H]1O (stereo partly drawn) [D-mannose]	–	–	–	–	–	supports the growth; also recorded: increased significantly
